Measured values: publication PMC9459842, “Chemical Profiling and Biological Activities of Pelargonium graveolens Essential Oils at Three Different Phenological Stages” (Plants, 2022)
Marks after values point to notes of the source that are not given here.

How the values were obtained:
[1] = system: carrageenan-induced edema; design: method as in PMID 12587692; settings: 32, 64, and 96 mg/kg; cited from earlier work
[2] = system: alloxan-induced diabetic mice; design: method as in doi:10.23893/1307-2080.APS.05522; settings: 2 and 24 h after the treatment; cited from earlier work
[3] = system: catabolic and inflammatory pathways induced by IL-1β; design: method as in PMID 24455984; settings: in vitro; cited from earlier work
[4] = system: inflammatory responses by lipopolysaccharide (LPS) in mice; settings: cited from earlier work
COX-2 = system: COX-2; design: method as in PMID 26721216; settings: cited from earlier work
[5] = system: occlusion of the middle cerebral artery in male rats; settings: intraperitoneal 100 mg/kg, cited from earlier work
diabetic animals = system: diabetic animals; design: method as in PMID 28549291; settings: daily doses 25, 50, and 100 mg/kg b.w.; cited from earlier work
monocytes = system: monocytes; design: method as in PMID 9889172; settings: in vitro; cited from earlier work
[6] = system: rats treated with ethanol for the induction of gastric ulcers; design: method as in PMID 24466200; settings: 50 mg/kg; cited from earlier work
DPPH antioxidant assay = format: biochemical; settings: n = 3
Method: (§1) The antioxidant activity of PGEO was evaluated by using […] complementary methods, DPPH, FRAP, ABTS, and H2O2 assays, according to the previously published protocols. The results are expressed as the concentration of PGEO providing 50% inhibition (IC50) and calculated by plotting the inhibition degrees against the essential oil concentrations. Trolox and ascorbic acid were used as positive controls. The assays were carried out in triplicate, and the IC50 values were presented as means ± SD.

FRAP antioxidant assay = format: biochemical; settings: n = 3
Method: as §1

ABTS antioxidant assay = format: biochemical; settings: n = 3
Method: as §1

[7] = system: Escherchia coli ATCC 25922; assay: disc diffusion assay; format: cell-based, Escherichia coli; settings: E. coli ATCC 25922; 50 μL of oil/well, chloramphenicol 30 µg; includes 6 mm well
Method: (§2) The antibacterial activity was evaluated against the following six bacterial strains representing Gram-positive and Gram-negative bacteria: Escherichia coli ATCC 25922, Proteus mirabilis ATCC 25933, Salmonella Typhimurium ATCC 700408, Bacillus subtilis ATCC 6633, Staphylococcus aureus ATCC 29213, and Listeria monocytogenes ATCC 13932. The tested bacterial strains were prepared by inoculating a loopful from the frozen stock (−20 °C) in Mueller–Hinton Agar (Biokar, Beauvais, France) and incubated at 37 °C for 24 h under an aerobic environment.
(§3) The primary screening of the antimicrobial activity of the studied samples was evaluated by the disc diffusion method according to the previously published investigation. Briefly, the culture suspension of each species was inoculated in Mueller–Hinton Agar (Biolife, Italiana, Milano-Italy). […] Chloramphenicol (30 µg) was used as a positive control for bacteria strains, while dimethylsulfoxide (DMSO) (10 µL; 5%) was used as a negative control. The plates were incubated at the following growth conditions; 37 °C for 24 h, 25 °C for 48 h, and 25 °C for 72 h for bacteria, yeast, and fungi, respectively. After incubation, the inhibitory diameters were measured in millimeters, and the results were expressed as means ± Standard Deviation of three replicates.

[8] = system: Bacillus subtilis ATCC 6633; assay: disc diffusion assay; format: cell-based; settings: B. subtilis ATCC 6633; 50 μL of oil/well, chloramphenicol 30 µg; includes 6 mm well
Method: as §2, §3

[9] = system: Listeria monocytogenes ATCC 13932; assay: disc diffusion assay; format: cell-based; settings: L. monocytogenes ATCC 13932; 50 μL of oil/well, chloramphenicol 30 µg; includes 6 mm well
Method: as §2, §3

[10] = system: Proteus mirabilis ATCC 25933; assay: disc diffusion assay; format: cell-based; settings: P. mirabilis ATCC 25933; 50 μL of oil/well, chloramphenicol 30 µg; includes 6 mm well
Method: as §2, §3

[11] = system: Salmonella Typhimurium ATCC700408; assay: disc diffusion assay; format: cell-based; settings: S. Typhimurium ATCC700408; 50 μL of oil/well, chloramphenicol 30 µg; includes 6 mm well
Method: as §2, §3

H2O2 antioxidant assay = format: biochemical; settings: n = 3
Method: as §1

## C=CC(C)(CCC=C(C)C)OC(C)=O (stereo not shown) [linalyl acetate]
[1]
  carrageenan-induced edema: remarkable reduction

## CC1=CCC2CC1C2(C)C (stereo not drawn) [α-pinene]
[2]
  fasting blood glucose levels: reduce fasting blood glucose levels
[3]
  expression of catabolic and inflammatory genes, activation of NF-κB and JNK: strongly inhibits
[4]
  synthesis of nitric oxide (NO), TNF-α, and IL-6: decrease the synthesis of nitric oxide (NO), TNF-α, and IL-6
COX-2
  COX-2 overexpression: potent effect on COX-2 overexpression
[5]
  expression of IL-1 and TNF-α: decreased
[5]; striatum, cortex, and hippocampus
  concentration of IL-6, NO, and malondialdehyde (MDA): decreased

## CC1CCC(C(C)C)C(O)C1 (stereo not shown) [menthol]
Diabetic animals
  glycosylated hemoglobin, blood glucose levels: decreased glycosylated hemoglobin, blood glucose levels
monocytes
  production of IL-1, PGE2, and LTB4: inhibit the production of inflammation mediators
[6]
  levels of IL-6 and TNF-α: reduced the levels of IL-6 and TNF-α

## Cc1c(C)c2c(c(C)c1O)CCC(C)(C(=O)O)O2 (stereo not shown) [Trolox]
DPPH antioxidant assay
  antioxidant activity IC50, DPPH: 24.31 ± 0.02 ^b μg/mL
FRAP antioxidant assay
  antioxidant activity IC50, FRAP: 48.25 ± 0.05 ^b μg/mL
ABTS antioxidant assay
  antioxidant activity IC50, ABTS: 61.48 ± 1.32 ^b μg/mL

## O=C(N[C@H](CO)[C@H](O)c1ccc([N+](=O)[O-])cc1)C(Cl)Cl [Chloramphenicol]
[7]
  inhibitory diameter: 22.47 ± 0.21 mm
[8]
  inhibitory diameter: 15.87 ± 0.21 mm
[9]
  inhibitory diameter: 29.07 ± 0.58 mm
[10]
  inhibitory diameter: 21.27 ± 0.21 mm
[11]
  inhibitory diameter: 13.17 ± 0.25 mm

## O=C1O[C@H]([C@@H](O)CO)C(O)=C1O [Ascorbic Acid, Ascorbic acid]
DPPH antioxidant assay
  antioxidant activity IC50, DPPH: 15.13 ± 0.04 ^a μg/mL
FRAP antioxidant assay
  antioxidant activity IC50, FRAP: 31.47 ± 1.07 ^a μg/mL
ABTS antioxidant assay
  antioxidant activity IC50, ABTS: 42.22 ± 0.05 ^a μg/mL
H2O2 antioxidant assay
  antioxidant activity IC50, H2O2: 23.34 ± 0.03 ^a μg/mL
